Test results as given in the supplement of paper PMC10307832.

What was measured:
Experiment in all cases: relative viability (nuclei count vs DMSO), 5 days (fraction); higher = more cells survive
Daporinad + Decitabine = compound: O=C(/C=C/c1cccnc1)NCCCCC1CCN(C(=O)c2ccccc2)CC1 [Daporinad] + Nc1ncn([C@H]2C[C@H](O)[C@@H](CO)O2)c(=O)n1 [Decitabine] (partner 2 µM)
Method in brief: (§1)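 For relative viability, nuclei counts in treated wells were divided by those in vehicle wells. Lung cancer cell lines had been pin-tool dosed in 1536-well plates the day after seeding and cultured for 5 days, then fixed and stained in one step (final 0.05% Triton X-100, 1% formaldehyde, 1 ug/ml Hoechst) and imaged at 4×. Doses were one drug alone or a fixed anchor-drug dose plus five library-drug doses (not always all listed) in √10 steps, and values are duplicate-plate medians.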

R406 + Pemetrexed = compound: COc1cc(Nc2ncc(F)c(Nc3ccc4c(n3)NC(=O)C(C)(C)O4)n2)cc(OC)c1OC [R406] + Nc1nc2[nH]cc(CCc3ccc(C(=O)N[C@@H](CCC(=O)O)C(=O)O)cc3)c2c(=O)[nH]1 [Pemetrexed] (partner 0.2 µM)
Method in brief: as §1

Daporinad + OSI-027 = compound: O=C(/C=C/c1cccnc1)NCCCCC1CCN(C(=O)c2ccccc2)CC1 [Daporinad] + COc1cccc2cc(-c3nc([C@H]4CC[C@H](C(=O)O)CC4)n4ncnc(N)c34)[nH]c12 [OSI-027] (partner 0.5 µM)
Method in brief: as §1

Daporinad + Olaparib = compound: O=C(/C=C/c1cccnc1)NCCCCC1CCN(C(=O)c2ccccc2)CC1 [Daporinad] + O=C(c1cc(Cc2n[nH]c(=O)c3ccccc23)ccc1F)N1CCN(C(=O)C2CC2)CC1 [Olaparib] (partner 8 µM)
Method in brief: as §1

Cell Line | relative viability (Daporinad + Decitabine; first compound 0.0005 µM) | relative viability (Daporinad + Decitabine; first compound 0.001581 µM) | relative viability (Daporinad + Decitabine; first compound 0.005 µM) | relative viability (Daporinad + Decitabine; first compound 0.01581 µM) | relative viability (R406 + Pemetrexed; first compound 0.08 µM) | relative viability (R406 + Pemetrexed; first compound 0.253 µM) | relative viability (R406 + Pemetrexed; first compound 0.8 µM) | relative viability (R406 + Pemetrexed; first compound 2.53 µM) | relative viability (R406 + Pemetrexed; first compound 8 µM) | relative viability (Daporinad + OSI-027; first compound 0.0005 µM) | relative viability (Daporinad + OSI-027; first compound 0.001581 µM) | relative viability (Daporinad + OSI-027; first compound 0.005 µM) | relative viability (Daporinad + OSI-027; first compound 0.01581 µM) | relative viability (Daporinad + Olaparib; first compound 0.0005 µM) | relative viability (Daporinad + Olaparib; first compound 0.001581 µM) | relative viability (Daporinad + Olaparib; first compound 0.005 µM) | relative viability (Daporinad + Olaparib; first compound 0.01581 µM)
ChaGo-K-1 | 0.534 | 0.532 | 0.355 | 0.246 | 0.25 | 0.25 | 0.248 | 0.253 | 0.233 | 0.673 | 0.597 | 0.636 | 0.471 | 0.34 | 0.248 | 0.258 | 0.196
Calu-6 | – | – | – | – | – | – | – | – | – | – | – | – | – | 0.495 | 0.433 | 0.391 | 0.268
EBC-1 | – | – | – | – | – | – | – | – | – | – | – | – | – | 0.597 | 0.667 | 0.602 | 0.49
NCI-H1299 | – | – | – | – | – | – | – | – | – | – | – | – | – | 0.972 | 0.857 | 0.904 | 0.855
NCI-H2228 | – | – | – | – | 0.316 | 0.332 | 0.352 | 0.255 | 0.0888 | 0.561 | 0.552 | 0.915 | 0.731 | 0.459 | 0.715 | 0.708 | 0.584
IA-LM | – | – | – | – | – | – | – | – | – | – | – | – | – | 0.798 | 0.766 | 0.707 | 0.475
NCI-H727 | 0.822 | 0.903 | 1 | 0.67 | – | – | – | – | – | 0.603 | 0.606 | 0.622 | 0.519 | 0.571 | 0.682 | 0.623 | 0.539
NCI-H1623 | – | – | – | – | – | – | – | – | – | 0.413 | 0.439 | 0.466 | 0.475 | – | – | – | –
CAL-12T | – | – | – | – | 1.22 | 1.15 | 1.17 | 0.918 | 1 | 0.65 | 0.541 | 0.719 | 0.33 | 0.624 | 0.596 | 0.512 | 0.269
